“Also recorded” adds a separate entry of the source. Ends that are not written are not given here.
Legend:
rat aortic rings = assay: Ex vivo rat aortic ring angiogenesis assay; assay type: cell-based, Sprague Dawley rats
[1] = system: human middle cerebral artery rings; assay: Human middle cerebral artery ring angiogenesis assay; assay type: cell-based; details: for microvessel outgrowths: day 9, vs control
[2] = system: cow middle cerebral artery rings; assay: Cow middle cerebral artery ring angiogenesis assay; assay type: cell-based; details: COX-2 inhibition by NS-398; data not shown
[3] = system: human brain endothelial cells; assay: Endothelial cell migration assay (modified Boyden chamber, […] invasion chamber); assay type: cell-based; details: 20 hours, vs untreated cells
Procedure: Endothelial Cell Migration Assay. Migration of human brain adult endothelial cells was evaluated using a modified Boyden chamber assay (BD BioCoat [sequence] Invasion Chamber), as described (Soker et al. 1998; Nakamura et al. 1997). The cells were plated at 4.10^4/ml onto an 8 μm pore size membrane coated with a thin layer of [sequence] basement membrane matrix. Freshly solubilized Aβ (1 μM and 5 μM) was added to the medium in the outer cup and the cells were cultured for 20 hours. Non-invading cells were removed from the upper surface by using a cotton swab. Membrane inserts were then fixed with 4% paraformaldehyde and stained with the DEAD-RED dye (MOLECULAR PROBE). Cells were observed using a fluorescent microscope. The number of cells, which migrated to the undersurface of the filter, was quantified by counting the cells in randomly selected 3 microscopic fields (10×). Experiments were done in triplicate.

[4] = system: bFGF-induced angiogenesis in MATRIGEL plugs; assay: In vivo […] plug assay (bFGF-induced angiogenesis); parameters: species or system mice
[5] = system: A-549 (human lung adenocarcinoma); assay: Nude mouse tumor xenograft model, A-549; assay type: in vivo, nude mice; details: for tumor growth (tumor volume): vs vehicle control; for tumor vascularization (mean microvessel count per tumor): vs control tumors, 50 mg/kg/day
Procedure: (§1) Nude mouse tumor xenograft model. […] The tumor volumes were determined by measuring length (l) and width (w) and calculating volume (V=lw^2/2). On the termination day of each in vivo antitumor study, tumors were extracted and fixed in 10% neutral buffered formalin for 6 h. Formalin-fixed paraffin sections were cut at 3 microns and dried overnight at room temperature. Sections were immunostained with rat anti-mouse CD31 ([sequence], San Diego, Calif.) using the avidin peroxidase complex technique as previously described (Blaskovich M. A., et al. Nat. Biotechnol. 18, 1065-1070 (2000)). Briefly, sections were digested with protease XXIV (1 mg/ml in PBS, pH 7.6) for 7 minutes. Endogenous peroxidase was blocked with 3% hydrogen peroxide and non-specific background staining reduced by a 10 min incubation with normal rabbit serum. Sections were incubated for 30 min with rat anti-mouse CD31 at 1:50, for 15 min with biotinylated anti-rat IgG and for 15 min with ABC complex (VECTOR KIT, Burlingame, Calif). NOVARED was used as the chromogen. Slides were counterstained with modified Mayer's hematoxylin using standard histological techniques. For microvessel counting, the five areas of highest tumor neovascularization were microscopically selected using a low-power view. After the areas of highest neovascularization had been identified, individual microvessels were counted on a 400×(40× objective lens and 10× ocular lens) field. Brown-staining endothelial cells or endothelial cell clusters were considered as a single, countable microvessel as previously described (Weidner N. et al. N. Engl. J. Med. 324, 1-8 (1991)). Data from at least forty 400× fields of each tumor type are reported by mean values±SE. Results are expressed as the % of microvessel count standardized against the microvessel count in the control tumors (vehicle only).

B16F1 melanoma cells = assay: Growth of subcutaneous B16F1 melanoma tumors; assay type: in vivo, C57B16/J mice; details: cells injected s.c. in medium containing 10 μM freshly dissolved Aβ1-40; 14 days after implantation
Procedure: Subcutaneous Implantation of B16 Melanoma Cells. C57B16/J mice were purchased from Jackson laboratories at 8 weeks of age. The B16 F1 murine melanoma cell line was purchased from ATCC. Cells were grown in DMEM medium supplemented with 10% fetal calf serum and 1× mixture of antibiotics-fungicide (BIOWHITEKER). […] 100 μl of cell suspension were injected subcutaneously in mice. Fourteen days after the implantation of the cells, mice were euthanized and the tumors dissected and weighted.

[6] = system: U87-MG (human glioblastoma); assay: Nude mouse tumor xenograft model, U87-MG; assay type: in vivo, nude mice
Procedure: as §1

endothelial cells = assay: Toxicity (apoptosis, necrosis) of Aβ in the capillary network assay; assay type: cell-based, human; details: soluble or aggregated Aβ; data not shown
Procedure: Although endothelial cells continue to proliferate and form a cobblestone monolayer when plated on untreated tissue culture dishes, culturing on dishes coated with reconstituted basement membrane induces endothelial cells to become quiescent and adopt a three-dimensional capillary-like morphology. Therefore, the effect of Aβ on the capillary-like network formation on […] by endothelial cells isolated from human middle cerebral artery was assessed. […] The potential toxicity of Aβ was investigated in this assay and it was observed that under these culture conditions no apoptosis (as measured by ELISA determining the quantity of cytoplasmic oligonucleosomes) or necrosis (estimated by the release of LDH in the culture medium) of endothelial cells was induced by either soluble or aggregated Aβ (data not shown).

[7] = system: chick chorionic allantoid membrane (CAM); assay: Chick chorionic allantoid membrane (CAM) model of angiogenesis; assay type: in vivo; details: dose range 1 microgram to 250 micrograms, 48 hours
Procedure: After 48 hours of incubation, CAMs were perfused with colloidal carbon, fixed and photographed.

[8] = system: neovascularization stimulated by bFGF in the rat cornea; assay: Rat corneal model of angiogenesis (bFGF hydron pellets); assay type: in vivo
Excerpt: Representative flat-mount photomicrographs of rat corneas (original magnification ×100) 7 days after implantation of hydron pellets. […] Angiogenesis indexes are expressed as mean±SE.

[9] = 50 mg/kg/day/tumor intratumorally

In the case of `CS(=O)(=O)Nc1ccc([N+](=O)[O-])cc1OC1CCCCC1` [NS-398], the microvessel outgrowths (rat aortic rings; 20 μM, day 5, vs control) was “displays anti-angiogenic activity; also recorded: effectively inhibited outgrowths”, the “effect on stimulation of microvessel outgrowths by 1 μM Aβ1-40” value (rat aortic rings; NS-398 + 1 μM Aβ1-40, day 5) was “able to oppose the pro-angiogenic effect of 1 μM Aβ1-40; also recorded: also inhibited” and the microvessel outgrowths ([1]; NS-398 (20 μM)) was “partially inhibited the microvessel outgrowths; also recorded: anti-angiogenic effect”. For the same compound, the microvessel outgrowths [2] was “partial inhibition of microvessel outgrowths”.

In the case of “Aβ: Aβ peptide as worded in the examples; methods and legends indicate Aβ1-40 (toxicity test: soluble or aggregated Aβ1-40 and Aβ1-42)”, the endothelial cell migration ([3]; 1 μM freshly solubilized) was “stimulated endothelial cell migration”, the endothelial cell migration ([3]; 5 μM freshly solubilized) was “significantly suppressed endothelial cells migration” and the “total cellular invasion in MATRIGEL plugs” value ([4]; 50 mg/kg/day, Aβ vs scrambled Aβ group, t-test) was “significant difference”. For the same compound, the “angiogenesis in the MATRIGEL plug model” value ([4]; with 2 μM of Aβ peptide) was “inhibition of angiogenesis”, the “tumor growth (tumor volume)” value [5, 9] was “suppression of tumor growth” and the “reduction of tumor microvessel densities” value ([5]; CD31 and factor VIII immunostaining, 50 mg/kg/day/tumor intratumorally) was “approximately 60%”. For the same compound, the tumor growth ([5]; with 10 μM of Aβ peptide) was “complete inhibition of tumor growth”, the “development of tumors (tumor weight)” value (B16F1 melanoma cells) was “significantly reduce the development of tumors” and the “tumor growth (tumor volume)” value ([6]; 50 mg/kg/day/tumor intratumorally, vs vehicle control) was “suppression of tumor growth”. For the same compound, the “reduction of microvessel densities” value ([6]; CD31 immunostaining, 50 mg/kg/day/tumor intratumorally) was “approximately 50%”, the tumor growth ([6]; with 10 μM of Aβ peptide) was “complete inhibition of tumor growth” and the “apoptosis of endothelial cells (ELISA, cytoplasmic oligonucleosomes)” value (endothelial cells) was “no apoptosis”. The “necrosis of endothelial cells (release of LDH in the culture medium)” value (endothelial cells) was “no”.

With “VIGKYHGMSNLVGRSFEVHQGKGAEVDAHGLFDIEAFVDV [scrambled Aβ, having the same amino acids as Aβ1-40 peptide, but in random order]” the “endothelial cell invasion and vessel formation (PECAM-1 immunostaining)” value ([4]; 50 mg/kg/day intraperitoneal, 6 days) was “presence of endothelial cells forming vessels”, the “tumor growth (tumor volume)” value [5, 9] was “did not affect the growth of human lung tumors; also recorded: no difference” and the “tumor vascularization (mean microvessel count per tumor)” value [5, 9] was “no significant difference”. For the same compound, the “tumor vascularization (mean microvessel count per tumor)” value ([5]; 50 mg/kg/day/tumor intratumorally, listed as Aβ scrambled) was “did not impede tumor vascularization”, the microvessel outgrowths ([1]; 1 μM, listed as scramble Aβ1-40) was “absence of pro-angiogenic activity; also recorded: not altered” and the microvessel outgrowths ([1]; 5 μM) was “not altered”. The formation of outgrowths ([1]; scramble peptide, dose not given, 9 days) was “unable to affect the formation of outgrowths”, the “vascular response vs control conditions” value [7] was “no difference in vascular response” and the “neovascularization stimulated by bFGF” value ([8]; after 7 days, hydron pellets) was “displayed no effect”. The “angiogenesis index vs control (bFGF alone)” value ([8]; dose not stated, 7 days) was “no significant difference”.

From patent US7589168B2 (Roskamp Research LLC, priority 2001, dated 2009)
